Source: ChEMBL document CHEMBL1130839, “Synthesis and pharmacological activities of 13-dehydro derivatives of primary prostaglandins” (Bioorg Med Chem Lett, 1998)

Assays:
Type in all cases: functional
Rattus norvegicus = species: Rattus norvegicus; assay: Compound was tested for contraction of rat isolated uterine; conditions: read-out: ED50 (the source's name)
Cavia porcellus [1] = species: Cavia porcellus; assay: Compound was tested for contraction of guinea-pig ileum; conditions: read-out: ED50 (the source's name)
Cavia porcellus [2] = species: Cavia porcellus; assay: Compound was tested for relaxation of guinea-pig trachea precontracted in histamine
Homo sapiens = species: Homo sapiens; assay: Compound was tested for inhibition of ADP-induced human platelet aggregation
Cavia porcellus [3] = species: Cavia porcellus; assay: Compound was tested for […] PGE2-induced relaxation of guinea-pig trachea precontracted with carbachol
Cavia porcellus [4] = species: Cavia porcellus; assay: Compound was tested for relaxation of guinea-pig trachea precontracted with histamine

| Compound | EC50 (Rattus norvegicus) [nM] | EC50 (Cavia porcellus [1]) [nM] | IC50 (Cavia porcellus [2]) [nM] | IC50 (Homo sapiens) [nM] | IC50 (Cavia porcellus [3]) [nM] | IC50 (Cavia porcellus [4]) [nM] |
| --- | --- | --- | --- | --- | --- | --- |
| CCCCC[C@H](O)C#C[C@@H]1[C@@H](CCCCCCC(=O)O)[C@@H](O)C[C@H]1O | 1000 | 20 |  |  |  |  |
| CC/C=C\C[C@H](O)C#C[C@H]1[C@H](O)CC(=O)[C@@H]1C/C=C\CCCC(=O)O |  | 260 | 5400 | 2600 |  |  |
| CCCCC[C@H](O)C#C[C@H]1[C@H](O)CC(=O)[C@@H]1C/C=C\CCCC(=O)O |  | 0.18 |  | 3.4 | 2.6 |  |
| CCCCC[C@H](O)C#C[C@H]1[C@H](O)CC(=O)[C@@H]1CCCCCCC(=O)O |  | 0.23 |  | 3000 |  | 8900 |
